Assay results as given in ChEMBL document CHEMBL5352410, “Discovery of novel selenium-containing azole derivatives as antifungal agents by exploiting the hydrophobic cleft of CYP51” (Eur J Med Chem, 2022).
Converted amounts (≈) assume the structure as drawn.

Columns and labels:
Candida albicans [1] = test: Antifungal activity against Candida albicans sc5314 by CLSI based broth microdilution method; assay type: functional
Candida albicans [2] = test: Antifungal activity against Candida albicans by CLSI based broth microdilution method; assay type: functional
Nakaseomyces glabratus = test: Antifungal activity against Candida glabrata by CLSI based broth microdilution method; assay type: functional
Candida parapsilosis = test: Antifungal activity against Candida parapsilosis by CLSI based broth microdilution method; assay type: functional; settings: Lodderomyces parapsilosis
Pichia kudriavzevii = test: Antifungal activity against Pichia kudriavzevii by CLSI based broth microdilution method; assay type: functional
[Candida] zeylanoides = Antifungal activity against Candida zeylanoides by CLSI based broth microdilution method; assay type: functional; settings: Dujonia zeylanoides
Cryptococcus neoformans = test: Antifungal activity against Cryptococcus neoformans by CLSI based broth microdilution method; assay type: functional
Aspergillus fumigatus = test: Antifungal activity against Aspergillus fumigatus by CLSI based broth microdilution method; assay type: functional
Candida albicans [3] = test: Antifungal activity against FCZ-resistant Candida albicans CaR by CLSI based broth microdilution method; assay type: functional
Candida albicans [4] = test: Antifungal activity against FCZ-resistant Candida albicans 17# by CLSI based broth microdilution method; assay type: functional
Candida albicans [5] = test: Antifungal activity against FCZ-resistant Candida albicans 632 by CLSI based broth microdilution method; assay type: functional
Candida albicans [6] = test: Antifungal activity against FCZ-resistant Candida albicans 901 by CLSI based broth microdilution method; assay type: functional
Candida albicans [7] = test: Antifungal activity against FCZ-resistant Candida albicans 904 by CLSI based broth microdilution method; assay type: functional
Candida albicans [8] = test: Fungicidal activity against Candida albicans; assay type: functional
Candida albicans [9] = test: Fungicidal activity against Candida albicans sc5314; assay type: functional
Candida albicans [10] = test: Fungicidal activity against FCZ-resistant Candida albicans CaR; assay type: functional
Candida albicans [11] = test: Fungicidal activity against FCZ-resistant Candida albicans 17#; assay type: functional
Candida albicans [12] = test: Fungicidal activity against FCZ-resistant Candida albicans 632; assay type: functional
Candida albicans [13] = test: Fungicidal activity against FCZ-resistant Candida albicans 901; assay type: functional
Candida albicans [14] = test: Fungicidal activity against FCZ-resistant Candida albicans 904; assay type: functional
[15] = target: T1, Lanosterol 14-alpha demethylase (Candida albicans (strain SC5314 / ATCC MYA-2876) (Yeast), UniProt P10613); test: Inhibition of CYP51 of Candida albicans ATCC SC5314 assessed as decrease in ergosterol level by measuring residual activity at 1 ug/ml incubated for 16 hrs by GC-MS analysis (reference value: 98.3 %); settings: at 1 µg/mL
[16] = target: T1, Lanosterol 14-alpha demethylase; test: Inhibition of CYP51 of Candida albicans ATCC SC5314 assessed as decrease in ergosterol level by measuring residual activity at 2 ug/ml incubated for 16 hrs by GC-MS analysis (reference value: 98.3 %); settings: at 2 µg/mL
[17] = target: T1, Lanosterol 14-alpha demethylase; test: Inhibition of CYP51 of Candida albicans ATCC SC5314 assessed as decrease in ergosterol level by measuring residual activity at 4 ug/ml incubated for 16 hrs by GC-MS analysis (reference value: 98.3 %); settings: at 4 µg/mL
[18] = target: T1, Lanosterol 14-alpha demethylase; test: Inhibition of CYP51 of Candida albicans ATCC SC5314 assessed as decrease in ergosterol level by measuring residual activity at 8 ug/ml incubated for 16 hrs by GC-MS analysis (reference value: 98.3 %); settings: at 8 µg/mL
[19] = target: T1, Lanosterol 14-alpha demethylase; test: Inhibition of CYP51 of Candida albicans ATCC SC5314 assessed as increase in obtusifoliol level at 1 ug/ml incubated for 16 hrs by GC-MS analysis (reference value: 0 %); parameters: scale not given: the % may be the effect or the level left; settings: at 1 µg/mL
[20] = target: T1, Lanosterol 14-alpha demethylase; test: Inhibition of CYP51 of Candida albicans ATCC SC5314 assessed as increase in obtusifoliol level at 2 ug/ml incubated for 16 hrs by GC-MS analysis (reference value: 0 %); parameters: scale not given: the % may be the effect or the level left; settings: at 2 µg/mL
[21] = target: T1, Lanosterol 14-alpha demethylase; test: Inhibition of CYP51 of Candida albicans ATCC SC5314 assessed as increase in obtusifoliol level at 4 ug/ml incubated for 16 hrs by GC-MS analysis (reference value: 0 %); parameters: scale not given: the % may be the effect or the level left; settings: at 4 µg/mL
[22] = target: T1, Lanosterol 14-alpha demethylase; test: Inhibition of CYP51 of Candida albicans ATCC SC5314 assessed as increase in obtusifoliol level at 8 ug/ml incubated for 16 hrs by GC-MS analysis (reference value: 0 %); parameters: scale not given: the % may be the effect or the level left; settings: at 8 µg/mL
[23] = target: T1, Lanosterol 14-alpha demethylase; test: Inhibition of CYP51 of Candida albicans ATCC SC5314 assessed as increase in lanosterol level at 1 ug/ml incubated for 16 hrs by GC-MS analysis (reference value: 1.7 %); parameters: scale not given: the % may be the effect or the level left; settings: at 1 µg/mL
[24] = target: T1, Lanosterol 14-alpha demethylase; test: Inhibition of CYP51 of Candida albicans ATCC SC5314 assessed as increase in lanosterol level at 2 ug/ml incubated for 16 hrs by GC-MS analysis (reference value: 1.7 %); parameters: scale not given: the % may be the effect or the level left; settings: at 2 µg/mL
[25] = target: T1, Lanosterol 14-alpha demethylase; test: Inhibition of CYP51 of Candida albicans ATCC SC5314 assessed as increase in lanosterol level at 4 ug/ml incubated for 16 hrs by GC-MS analysis (reference value: 1.7 %); parameters: scale not given: the % may be the effect or the level left; settings: at 4 µg/mL
[26] = target: T1, Lanosterol 14-alpha demethylase; test: Inhibition of CYP51 of Candida albicans ATCC SC5314 assessed as increase in lanosterol level at 8 ug/ml incubated for 16 hrs by GC-MS analysis (reference value: 1.7 %); parameters: scale not given: the % may be the effect or the level left; settings: at 8 µg/mL
[27] = target: T1, Lanosterol 14-alpha demethylase; test: Inhibition of CYP51 of Candida albicans ATCC SC5314 assessed as increase in eburicol level at 1 ug/ml incubated for 16 hrs by GC-MS analysis (reference value: 0 %); parameters: scale not given: the % may be the effect or the level left; settings: at 1 µg/mL
[28] = target: T1, Lanosterol 14-alpha demethylase; test: Inhibition of CYP51 of Candida albicans ATCC SC5314 assessed as increase in eburicol level at 2 ug/ml incubated for 16 hrs by GC-MS analysis (reference value: 0 %); parameters: scale not given: the % may be the effect or the level left; settings: at 2 µg/mL
[29] = target: T1, Lanosterol 14-alpha demethylase; test: Inhibition of CYP51 of Candida albicans ATCC SC5314 assessed as increase in eburicol level at 4 ug/ml incubated for 16 hrs by GC-MS analysis (reference value: 0 %); parameters: scale not given: the % may be the effect or the level left; settings: at 4 µg/mL
[30] = target: T1, Lanosterol 14-alpha demethylase; test: Inhibition of CYP51 of Candida albicans ATCC SC5314 assessed as increase in eburicol level at 8 ug/ml incubated for 16 hrs by GC-MS analysis (reference value: 0 %); parameters: scale not given: the % may be the effect or the level left; settings: at 8 µg/mL
Candida albicans [31] = test: Antibiofilm activity against Candida albicans SC5314 assessed as sessile minimum inhibitory concentration measured after 1.5 hrs by XTT assay; assay type: functional
Candida albicans [32] = test: Antibiofilm activity against Candida albicans SC5314 assessed as sessile minimum inhibitory concentration measured after 3 hrs by XTT assay; assay type: functional
Candida albicans [33] = test: Antibiofilm activity against Candida albicans SC5314 assessed as sessile minimum inhibitory concentration measured after 6 hrs by XTT assay; assay type: functional
Candida albicans [34] = test: Antibiofilm activity against Candida albicans SC5314 assessed as sessile minimum inhibitory concentration measured after 24 hrs by XTT assay; assay type: functional
Candida albicans [35] = test: Antibiofilm activity against Candida albicans CPCC400616 assessed as sessile minimum inhibitory concentration measured after 1.5 hrs by XTT assay; assay type: functional
Candida albicans [36] = test: Antibiofilm activity against Candida albicans CPCC400616 assessed as sessile minimum inhibitory concentration measured after 3 hrs by XTT assay; assay type: functional
Candida albicans [37] = test: Antibiofilm activity against Candida albicans CPCC400616 assessed as sessile minimum inhibitory concentration measured after 6 hrs by XTT assay; assay type: functional
Candida albicans [38] = test: Antibiofilm activity against Candida albicans CPCC400616 assessed as sessile minimum inhibitory concentration measured after 24 hrs by XTT assay; assay type: functional
[39] = Cytotoxicity against human HL-60 cells by MTT assay; assay type: toxicity, cell-based
[40] = Cytotoxicity against human MDA-MB-231 cells by MTT assay; assay type: toxicity, cell-based
[41] = Cytotoxicity against human PC-3 cells by MTT assay; assay type: toxicity, cell-based

T1 sequence (P10613 whole entry): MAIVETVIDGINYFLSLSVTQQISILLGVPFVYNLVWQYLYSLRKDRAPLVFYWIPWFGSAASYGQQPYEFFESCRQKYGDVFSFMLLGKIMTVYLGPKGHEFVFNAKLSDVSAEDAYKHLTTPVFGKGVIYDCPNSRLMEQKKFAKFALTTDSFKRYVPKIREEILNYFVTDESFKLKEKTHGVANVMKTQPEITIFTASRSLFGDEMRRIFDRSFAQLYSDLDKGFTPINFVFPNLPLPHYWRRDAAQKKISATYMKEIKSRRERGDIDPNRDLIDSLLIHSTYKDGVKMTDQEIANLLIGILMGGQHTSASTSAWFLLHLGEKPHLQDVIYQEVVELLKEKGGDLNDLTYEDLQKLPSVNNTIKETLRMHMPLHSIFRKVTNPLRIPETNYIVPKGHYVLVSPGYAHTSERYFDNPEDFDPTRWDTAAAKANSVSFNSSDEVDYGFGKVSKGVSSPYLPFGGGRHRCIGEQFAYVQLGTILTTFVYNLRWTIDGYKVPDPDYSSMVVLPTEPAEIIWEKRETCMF

Work on Clc1ccc(C(Cn2ccnc2)[Se]C(Cn2ccnc2)c2ccc(Cl)cc2)cc1 (stereo not given) yielded an MIC (Candida albicans [1]) of 1 µg/mL (≈ 2.04 µM), an MIC (Candida albicans [2]) of 2 µg/mL (≈ 4.08 µM) and an MIC (Nakaseomyces glabratus) of 64 µg/mL (≈ 131 µM). It also gave an MIC (Candida parapsilosis) of 2 µg/mL (≈ 4.08 µM), an MIC (Pichia kudriavzevii) of 16 µg/mL (≈ 32.6 µM) and an MIC ([Candida] zeylanoides) of 8 µg/mL (≈ 16.3 µM). For the same compound, the MIC (Cryptococcus neoformans) was greater than 64 µg/mL, the MIC (Aspergillus fumigatus) was greater than 64 µg/mL and the MIC (Candida albicans [3]) was 4 µg/mL (≈ 8.16 µM). It also gave an MIC (Candida albicans [4]) of 1 µg/mL (≈ 2.04 µM), an MIC (Candida albicans [5]) of 2 µg/mL (≈ 4.08 µM) and an MIC (Candida albicans [6]) of 1 µg/mL (≈ 2.04 µM). The MIC (Candida albicans [7]) was 1 µg/mL (≈ 2.04 µM), the MFC (Candida albicans [8]) was 32 µg/mL (≈ 65.3 µM) and the MFC (Candida albicans [9]) was 2 µg/mL (≈ 4.08 µM). For the same compound, the MFC (Candida albicans [10]) was greater than 64 µg/mL, the MFC (Candida albicans [11]) was greater than 64 µg/mL and the MFC (Candida albicans [12]) was 4 µg/mL (≈ 8.16 µM). The MFC (Candida albicans [13]) was 2 µg/mL (≈ 4.08 µM), the MFC (Candida albicans [14]) was 1 µg/mL (≈ 2.04 µM) and the Activity [15] was 64.7%. The Activity [16] was 10.4%, the Activity [17] was 4.4% and the Activity [18] was 3.7%. The Activity [19] was 1%, the Activity [20] was 18% and the Activity [21] was 9.5%. For the same compound, the Activity [22] was 23.8%, the Activity [23] was 5.1% and the Activity [24] was 15.4%. The Activity [25] was 12.4%, the Activity [26] was 17% and the Activity [27] was 29.3%. It also gave an Activity [28] of 56.2%, an Activity [29] of 73.8% and an Activity [30] of 55.5%. It also gave an MIC50 (Candida albicans [31]) of 0.5 µg/mL (≈ 1.02 µM), an MIC80 (Candida albicans [31]) of 2 µg/mL (≈ 4.08 µM) and an MIC50 (Candida albicans [32]) of 0.5 µg/mL (≈ 1.02 µM). It also gave an MIC80 (Candida albicans [32]) of 2 µg/mL (≈ 4.08 µM), an MIC50 (Candida albicans [33]) of 0.5 µg/mL (≈ 1.02 µM) and an MIC80 (Candida albicans [33]) of 4 µg/mL (≈ 8.16 µM). The MIC50 (Candida albicans [34]) was 0.5 µg/mL (≈ 1.02 µM), the MIC80 (Candida albicans [34]) was 2 µg/mL (≈ 4.08 µM) and the MIC50 (Candida albicans [35]) was 0.5 µg/mL (≈ 1.02 µM). It also gave an MIC80 (Candida albicans [35]) of 2 µg/mL (≈ 4.08 µM), an MIC50 (Candida albicans [36]) of 0.5 µg/mL (≈ 1.02 µM) and an MIC80 (Candida albicans [36]) of 2 µg/mL (≈ 4.08 µM). The MIC50 (Candida albicans [37]) was 1 µg/mL (≈ 2.04 µM), the MIC80 (Candida albicans [37]) was 2 µg/mL (≈ 4.08 µM) and the MIC50 (Candida albicans [38]) was 2 µg/mL (≈ 4.08 µM). For the same compound, the MIC80 (Candida albicans [38]) was 4 µg/mL (≈ 8.16 µM), the IC50 [39] was 5.18 µM and the IC50 [40] was 3.25 µM. It also gave an IC50 [41] of 0.98 µM.
